{"source": "paper PMC5899833", "about": "“Population pharmacokinetics/pharmacodynamics of micafungin against Candida species in obese, critically ill, and morbidly obese critically ill patients” (Critical Care, 2018)", "experiment": "Population pharmacokinetic model of total plasma micafungin in patients", "assay_type": "in vivo, human", "conditions": "31 patients; for clearance: human", "method": "A pharmacokinetic study was carried out in patients under micafungin empirical or directed treatment for invasive candidiasis. The population consisted of 11 morbidly obese critically ill adult patients (from the Hospital Universitario La Paz, Madrid, Spain), 10 nonobese critically ill patients, and 10 obese noncritically ill patients (from the Hospital del Mar, Barcelona, Spain). Patients admitted to ICUs were those considered to be critically ill. The study protocol was approved by the Ethics Committee of the Hospital La Paz (Madrid, Spain) and the Hospital del Mar (Barcelona, Spain). Written informed consent was obtained from patients (or relatives if the patient was unable to provide due to their critical situation) before blood sampling.\nDemographic and clinical data prior to initiation of antifungal treatment were collected. Severity (Simplified Acute Physiology Score (SAPS) II), Sequential Organ Failure Assessment (SOFA) score, and risk for invasive candidiasis (Candida score) (except for patients with microbiologically documented infections) were calculated. Patients received dosage regimens of once-daily 100 mg or 150 mg micafungin (Astellas Pharma S.A., Spain) diluted in 100 ml isotonic saline solution that was intravenously infused over 60 min at the discretion of the treating physician (following the prescribing information and hospital treatment guidelines). On day 3, blood samples were collected at baseline (predose) and after 1, 3, 5, 8, 18, and 24 h. Additional blood samples at day 0 and day 7 were collected when feasible.\nTotal micafungin concentrations in plasma were measured by a validated ultra-high-performance liquid chromatography (UHPLC)-tandem mass spectrometry (MS/MS) method, from 0.2 to 30 μg/ml, on a Shimadzu Nexera 2 UHPLC system coupled to a Shimadzu 8030+ triple quadruple mass spectrometer (Shimadzu, Kyoto, Japan). Clinical samples were assayed alongside plasma calibrators and quality controls and met batch acceptance criteria.\nTo describe total micafungin concentrations, one- and two-compartment models were developed with the nonparametric adaptive grid algorithm within the freely available Pmetrics software package for R (Los Angeles, CA, USA). Elimination from the central compartment, and intercompartmental distribution into the peripheral compartment (two-compartment model), were modeled as first-order processes. The discrimination between different models resulted from the comparison of the −2 log-likelihood (−2LL). A p value of < 0.05 was considered statistically significant.\nAge, gender, body weight, body mass index (BMI), Acute Physiology and Chronic Health Evaluation (APACHE) II, serum creatinine concentration, measured creatinine clearance, Cockroft-Gault estimated creatinine clearance, and serum albumin concentration were evaluated as covariates. Covariate selection was performed using a stepwise linear regression from R on all covariates and Bayesian posterior parameters. Potential covariates were separately entered into the model and statistically tested by use of the –2LL values.\nGoodness-of-fit was assessed by linear regression, with an observed-predicted plot, coefficients of determination, and LL values. Predictive performance evaluation was based on mean error of prediction (bias) and mean bias-adjusted squared error of prediction (imprecision) of the population and individual prediction models. The internal validity of the population pharmacokinetic model was assessed by the bootstrap resampling method (n = 1000) and normalized prediction distribution errors (NPDE). Using a visual predictive check method, parameters obtained from the bootstrap method were plotted with the observed concentrations. NPDE plots were checked for normal distribution characteristics and trends in data errors. […]", "key": {"[1]": {"conditions": "final two-compartment covariate population PK model, 100 or 150 mg once daily iv"}, "[2]": {"conditions": "final two-compartment covariate population PK model, 100 or 150 mg once daily iv, SD"}}, "note": "Like-named read-outs stand apart in the source and are kept apart here. Starred links: 1 amine or outer side, 2 acyl side, 3 side chain; linkers in the order of their positions; H or OH if unused. Positions of bridges follow the written chain, without caps; N, C: chain ends. Non-standard residues stand in square brackets, D forms with d. Residues, ends and D or L forms follow the SMILES beside them. *: point of attachment. hTyr(3S-OH,4S-OH,3'-OSO3H) = N[C@H](C(=O)O)[C@H](O)[C@@H](O)c1ccc(O)c(OS(=O)(=O)O)c1; Orn(4R-OH,5R-OH) = O=C([C@H](C[C@@H](O)[C@@H](O)N[*:3])N[*:1])[*:2]; Pro(3S-OH,4S-Me) = C[C@H]1CN[C@H](C(=O)O)[C@H]1O; X1 = CCCCCOc1ccc(-c2cc(-c3ccc(C(=O)*)cc3)no2)cc1; Gln(3R-OH) = NC(=O)C[C@@H](O)[C@H](N)C(=O)O; Hyp = O=C(O)[C@@H]1C[C@@H](O)CN1"}
{"smiles": "CCCCCOc1ccc(-c2cc(-c3ccc(C(=O)N[C@H]4C[C@@H](O)[C@@H](O)NC(=O)[C@@H]5[C@@H](O)[C@@H](C)CN5C(=O)[C@H]([C@H](O)CC(N)=O)NC(=O)[C@H]([C@H](O)[C@@H](O)c5ccc(O)c(OS(=O)(=O)O)c5)NC(=O)[C@@H]5C[C@@H](O)CN5C(=O)[C@H]([C@@H](C)O)NC4=O)cc3)no2)cc1", "note": "[micafungin] (X1-[Orn(4R-OH,5R-OH)]T[Hyp][hTyr(3S-OH,4S-OH,3'-OSO3H)][Gln(3R-OH)][Pro(3S-OH,4S-Me)]; lactam 1-C)", "values": [{"measurement": "Central volume, median", "setting": "[1]", "value": 16.34, "unit": "L"}, {"measurement": "kcp, median", "setting": "[1]", "value": 0.26, "unit": "h⁻¹"}, {"measurement": "kpc, median", "setting": "[1]", "value": 0.14, "unit": "h⁻¹"}, {"measurement": "Central volume, mean ± SD", "setting": "[2]", "value": "16.34 ± 5.87", "unit": "L"}, {"measurement": "kcp (rate constant central to peripheral compartment), mean ± SD", "setting": "[2]", "value": "0.38 ± 0.37", "unit": "h⁻¹"}, {"measurement": "kpc (rate constant peripheral to central compartment), mean ± SD", "setting": "[2]", "value": "0.32 ± 0.31", "unit": "h⁻¹"}, {"measurement": "clearance", "setting": "plasma, iv, final two-compartment covariate population PK model, 100 or 150 mg once daily iv, read-out: Clearance, median (converted)", "value": 12.2, "unit": "mL/min"}, {"measurement": "clearance", "setting": "final two-compartment covariate population PK model (weight, age on CL), 100 or 150 mg once daily iv over 60 min, 242 total plasma concentrations, UHPLC-MS/MS, SD, read-out: Clearance, mean ± SD (converted)", "value": 13.3, "unit": "mL/min"}]}
